Data published in US7732457B2, “Amino-pyridines as inhibitors of β-secretase” (Wyeth LLC, priority 2005, dated 2010).

How the values were obtained:
human BACE1 = human BACE1 (Homo sapiens, UniProt P56817); experiment: BACE-1 fluorescent kinetic assay (cleavage of peptide substrate WABC-6); format: biochemical; details: 10 nM enzyme, 25 μM substrate WABC-6, Na-Acetate pH 4.5, room temperature
Protocol: Evaluation of BACE-1 Binding Affinity of Test Compounds
Fluorescent Kinetic Assay
Dilution and mixing steps: total reaction volume: 100 μL
100 μM substrate dilution in 1×PBS was prepared, and
Fluorescence Readings: Readings at λex 320 nm and λem 420 nm are taken every 40 sec for 30 min at room temperature and the linear slope for substrate cleavage rate (vi) determined.

Sequence of human BACE1 (P56817 46-501): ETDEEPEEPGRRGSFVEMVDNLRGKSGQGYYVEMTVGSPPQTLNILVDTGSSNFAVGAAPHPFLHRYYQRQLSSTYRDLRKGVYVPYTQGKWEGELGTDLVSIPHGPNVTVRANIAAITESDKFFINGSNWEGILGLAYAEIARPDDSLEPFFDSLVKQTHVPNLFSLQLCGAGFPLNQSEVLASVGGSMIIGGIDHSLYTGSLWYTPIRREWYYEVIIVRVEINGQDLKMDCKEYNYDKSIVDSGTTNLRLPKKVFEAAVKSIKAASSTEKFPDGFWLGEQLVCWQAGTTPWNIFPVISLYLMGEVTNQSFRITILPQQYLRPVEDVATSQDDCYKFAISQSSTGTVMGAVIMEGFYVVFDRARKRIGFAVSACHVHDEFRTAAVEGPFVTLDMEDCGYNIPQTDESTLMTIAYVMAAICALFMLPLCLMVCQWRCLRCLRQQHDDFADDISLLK

| melting point | IC50 (human BACE1) | SMILES |
| --- | --- | --- |
| 163 to 166 °C | 110 to 1000 nM | Nc1cccc(Cn2c(-c3ccc(-c4cccnc4)cc3)ccc2-c2ccccc2Cl)n1 [Example 28] |
| 106 to 107 °C | 1100 to 5000 nM | CCCOc1ccc(-c2ccc(-c3ccccc3)n2Cc2cccc(N)n2)cc1 [Example 56, 6-{[2-phenyl-5-(4-propoxyphenyl)-1H-pyrrol-1-yl]methyl}pyridin-2-amine] |
| 145 to 150 °C | 1100 to 5000 nM | CCCCC(=O)Nc1ccc(-c2ccc(-c3ccccc3Cl)n2Cc2cccc(N)n2)cc1 [Example 52, Pentanoic acid {4-[1-(6-amino-pyridin-2-ylmethyl)-5-(2-chlorophenyl)-1H-pyrrol-2-yl]-phenyl}-amide] |
